# Biological target: PRMT5:MEP50 (Homo sapiens, UniProt O14744)
# Assay: PRMT5:MEP50 Flashplate Assay
# Assay type: biochemical
# Settings: PRMT5:MEP50 inhibitory activity; 3H-SAM, 2 h at room temperature, top concentration 10 μM
# Experimental: PRMT5:MEP50 Flashplate Assay:
# Ten-point curves of inhibitor compounds were made using serial threefold dilutions in DMSO (the final top concentration of compound was 10 μM, 1% DMSO). Reaction mixture consisting of 50 mM Tris-HCl (pH 8.5), 0.002% Tween 20, 0.005% BSA (Bovine Serum Albumin), 1 mM TCEP, and 1% DMSO. Substrates are freshly prepared in reaction buffer. PRMT5:MEP50 was then added into substrate solution and mixed gently. Inhibitor compound was then added and incubated for 30 min at room temperature. ^3H-SAM was added to initiate the reaction. Reactions were incubated for 2 h at room temperature and quenched with 0.5 mM SAM (S-adenosyl-L-Methionine) in assay buffer. An aliquot of the reaction mix was transferred to a streptavidin-coated 384-well FlashPlate (PerkinElmer). After an incubation time of 1 h, the plate was washed and then read on a TopCount (PerkinElmer) to measure the amount of tritium incorporated into the peptide substrate. IC50 was calculated using conventional curve-fitting method.
# Chain of PRMT5:MEP50 (O14744 whole entry, species assumed): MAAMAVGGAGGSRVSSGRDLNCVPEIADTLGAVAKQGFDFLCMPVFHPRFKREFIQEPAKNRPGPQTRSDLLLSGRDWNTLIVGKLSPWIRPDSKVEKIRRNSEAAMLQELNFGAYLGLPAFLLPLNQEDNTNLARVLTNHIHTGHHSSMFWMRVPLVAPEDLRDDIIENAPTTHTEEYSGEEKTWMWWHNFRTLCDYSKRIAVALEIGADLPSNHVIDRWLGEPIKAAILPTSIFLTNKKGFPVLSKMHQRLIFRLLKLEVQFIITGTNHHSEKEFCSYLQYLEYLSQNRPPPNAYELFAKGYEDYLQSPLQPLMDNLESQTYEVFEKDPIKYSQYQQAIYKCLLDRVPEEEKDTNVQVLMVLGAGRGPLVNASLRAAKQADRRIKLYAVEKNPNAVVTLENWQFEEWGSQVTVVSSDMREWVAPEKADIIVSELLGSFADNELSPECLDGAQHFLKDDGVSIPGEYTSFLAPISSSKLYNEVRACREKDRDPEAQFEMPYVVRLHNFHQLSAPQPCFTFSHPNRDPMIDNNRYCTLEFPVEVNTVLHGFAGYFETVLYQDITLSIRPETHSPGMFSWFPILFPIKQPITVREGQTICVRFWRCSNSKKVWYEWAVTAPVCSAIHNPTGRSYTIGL
# Chain of PRMT5:MEP50 (Q9BQA1 whole entry partner, species assumed): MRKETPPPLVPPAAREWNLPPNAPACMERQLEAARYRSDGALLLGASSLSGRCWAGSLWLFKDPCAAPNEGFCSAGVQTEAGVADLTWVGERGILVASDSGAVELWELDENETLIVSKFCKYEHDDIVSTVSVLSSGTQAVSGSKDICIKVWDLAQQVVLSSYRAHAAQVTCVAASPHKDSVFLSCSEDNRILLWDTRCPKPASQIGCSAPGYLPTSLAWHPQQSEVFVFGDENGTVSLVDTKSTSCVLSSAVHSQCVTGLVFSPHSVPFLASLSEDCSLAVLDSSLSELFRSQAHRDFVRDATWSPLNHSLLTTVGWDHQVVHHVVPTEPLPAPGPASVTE
row,Compound,IC50
1,"CC[C@@H]1Cc2cc3ccc(CC[C@H]4C[C@@H](n5ccc6c(N)ncnc65)[C@H](O)[C@@H]4O)cc3nc2N1 [Compound 1-24, (1R,2S,3R,5S)-3-(4-amino-7H-pyrrolo[2,3-d]pyrimidin-7-yl)-5-(2-((R)-2-ethyl-2,3-dihydro-1H-pyrrolo[2,3-b]quinolin-7-yl)ethyl)cyclopentane-1,2-diol]",< 1 nM
2,"NC1=Nc2cc(CC[C@H]3C[C@@H](n4ccc5c(N)ncnc54)[C@H](O)[C@@H]3O)ccc2[C@H]2C[C@@H]12 (single isomer, unassigned) [Compound 1-11]",< 1 nM
3,"Nc1ncnc2c1ccn2[C@@H]1C[C@H](CCc2ccc3cc4c(nc3c2)N[C@@H](C2CC2)C4)[C@@H](O)[C@H]1O [Compound 1-23, (1R,2S,3R,5S)-3-(4-amino-7H-pyrrolo[2,3-d]pyrimidin-7-yl)-5-(2-((R)-2-cyclopropyl-2,3-dihydro-1H-pyrrolo[2,3-b]quinolin-7-yl)ethyl)cyclopentane-1,2-diol]",< 1 nM
4,"Nc1ncnc2c1ccn2[C@@H]1C[C@H](CCc2ccc3cc4c(nc3c2)NC2(CC2)C4)[C@@H](O)[C@H]1O [Compound 1-31, (1R,2S,3R,5S)-3-(4-amino-7H-pyrrolo[2,3-d]pyrimidin-7-yl)-5-(2-(1′,3′-dihydrospiro[cyclopropane-1,2′-pyrrolo[2,3-b]quinolin]-7′-yl)ethyl)cyclopentane-1,2-diol]",< 1 nM
5,"Nc1ncnc2c1ccn2[C@@H]1C[C@H](CCc2ccc3cc4c(nc3c2)N[C@H](CC2CC2)C4)[C@@H](O)[C@H]1O [Compound 1-29, (1R,2S,3R,5S)-3-(4-amino-7H-pyrrolo[2,3-d]pyrimidin-7-yl)-5-(2-((R)-2-(cyclopropylmethyl)-2,3-dihydro-1H-pyrrolo[2,3-b]quinolin-7-yl)ethyl)cyclopentane-1,2-diol]",1 to 100 nM
6,"C=CC[C@@H]1Cc2cc3ccc(CC[C@H]4C[C@@H](n5ccc6c(N)ncnc65)[C@H](O)[C@@H]4O)cc3nc2N1 [Compound 1-27, (1S,2R,3S,5R)-3-(2-((R)-2-allyl-2,3-dihydro-1H-pyrrolo[2,3-b]quinolin-7-yl)ethyl)-5-(4-amino-7H-pyrrolo[2,3-d]pyrimidin-7-yl)cyclopentane-1,2-diol]",< 1 nM
7,"C[C@H]1CCc2cc3ccc(CC[C@H]4C[C@@H](n5ccc6c(N)ncnc65)[C@H](O)[C@@H]4O)cc3nc2N1 [Compound 1-36, (1R,2S,3R,5S)-3-(4-amino-7H-pyrrolo[2,3-d]pyrimidin-7-yl)-5-(2-((S)-2-methyl-1,2,3,4-tetrahydrobenzo[b][1,8]naphthyridin-8-yl)ethyl)cyclopentane-1,2-diol]",< 1 nM
8,"Nc1ncnc2c1ccn2[C@@H]1O[C@H](CCc2ccc3cc4c(nc3c2)NCCC4)[C@@H](O)[C@H]1O [Compound 3-13, (2R,3R,4S,5R)-2-(4-amino-7H-pyrrolo[2,3-d]pyrimidin-7-yl)-5-(2-(1,2,3,4-tetrahydrobenzo[b][1,8]naphthyridin-8-yl)ethyl)tetrahydrofuran-3,4-diol]",< 1 nM

# Second part, the compound after the results:
row,IC50,Compound
1,< 1 nM,"Nc1ncnc2c1ccn2[C@@H]1C[C@H](CCc2ccc3cc4c(nc3c2)NCCCC4)[C@@H](O)[C@H]1O [Compound 1-41, (1R,2S,3R,5S)-3-(4-amino-7H-pyrrolo[2,3-d]pyrimidin-7-yl)-5-(2-(2,3,4,5-tetrahydro-1H-azepino[2,3-b]quinolin-9-yl)ethyl)cyclopentane-1,2-diol]"
2,< 1 nM,"C[C@@H]1Cc2cc3ccc(CC[C@H]4C[C@@H](n5ccc6c(N)ncnc65)[C@H](O)[C@@H]4O)cc3nc2N1 [Compound 1-21, (1R,2S,3R,5S)-3-(4-amino-7H-pyrrolo[2,3-d]pyrimidin-7-yl)-5-(2-((R)-2-methyl-2,3-dihydro-1H-pyrrolo[2,3-b]quinolin-7-yl)ethyl)cyclopentane-1,2-diol]"
3,< 1 nM,"Nc1ncnc2c1ccn2[C@@H]1C[C@H](CCc2ccc3cc4c(nc3c2)N[C@H](C2CC2)CC4)[C@@H](O)[C@H]1O [Compound 1-38, (1R,2S,3R,5S)-3-(4-amino-7H-pyrrolo[2,3-d]pyrimidin-7-yl)-5-(2-((S)-2-cyclopropyl-1,2,3,4-tetrahydrobenzo[b][1,8]naphthyridin-8-yl)ethyl)cyclopentane-1,2-diol]"
4,> 100 nM,"Nc1ncnc2c1ccn2[C@@H]1C[C@H](CCc2ccc3cc4c(=O)n(-c5ccccc5)[nH]c4nc3c2)[C@@H](O)[C@H]1O [Compound 1-33, 7-(2-((1S,2R,3S,4R)-4-(4-amino-7H-pyrrolo[2,3-d]pyrimidin-7-yl)-2,3-dihydroxycyclopentyl)ethyl)-2-phenyl-1,2-dihydro-3H-pyrazolo[3,4-b]quinolin-3-one]"
5,1 to 100 nM,"CC(C)[C@@H]1CCc2cc3ccc(CC[C@H]4C[C@@H](n5ccc6c(N)ncnc65)[C@H](O)[C@@H]4O)cc3nc2N1 [Compound 1-39, (1R,2S,3R,5S)-3-(4-amino-7H-pyrrolo[2,3-d]pyrimidin-7-yl)-5-(2-((S)-2-isopropyl-1,2,3,4-tetrahydrobenzo[b][1,8]naphthyridin-8-yl)ethyl)cyclopentane-1,2-diol]"
6,< 1 nM,"Nc1ncnc2c1ccn2[C@@H]1C[C@H](CCc2ccc3c(c2)nc(N)n2ccnc32)[C@@H](O)[C@H]1O [Compound 1-9, (1R,2S,3R,5S)-3-(4-amino-7H-pyrrolo[2,3-d]pyrimidin-7-yl)-5-(2-(5-aminoimidazo-[1,2-c]quinazolin-8-yl)ethyl)cyclopentane-1,2-diol]"
7,1 to 100 nM,"Nc1ncnc2c1ccn2[C@@H]1C[C@H](CCc2ccc3cc4c(=O)[nH][nH]c4nc3c2)[C@@H](O)[C@H]1O [Compound 1-32, 7-(2-((1S,2R,3S,4R)-4-(4-amino-7H-pyrrolo[2,3-d]pyrimidin-7-yl)-2,3-dihydroxycyclopentyl)ethyl)-1,2-dihydro-3H-pyrazolo[3,4-b]quinolin-3-one]"
8,< 1 nM,"C[C@@H]1CCc2cc3ccc(CC[C@H]4C[C@@H](n5ccc6c(N)ncnc65)[C@H](O)[C@@H]4O)cc3nc2N1 [Compound 1-37, (1R,2S,3R,5S)-3-(4-amino-7H-pyrrolo[2,3-d]pyrimidin-7-yl)-5-(2-((R)-2-methyl-1,2,3,4-tetrahydrobenzo[b][1,8]naphthyridin-8-yl)ethyl)cyclopentane-1,2-diol]"
9,1 to 100 nM,"Nc1ncnc2c1ccn2[C@@H]1C[C@H](CCc2ccc3cc4c(nc3c2)NOCCC4)[C@@H](O)[C@H]1O [Compound 1-17, (1R,2S,3R,5S)-3-(4-amino-7H-pyrrolo[2,3-d]pyrimidin-7-yl)-5-(2-(1,3,4,5-tetrahydro-[1,2]oxazepino[3,4-b]quinolin-9-yl)ethyl)cyclopentane-1,2-diol]"
